# Source: patent US7291629B2, “Neurotrophin antagonist compositions” (Painceptor Pharma Corporation, priority 1996, dated 2007)
# System: L5/L6 Nerve Ligated and Sham-Operated Rats
# Experiment: not given
# Settings: i.th; L5/L6 nerve ligated rats
row,Compound,A50(95% C.L.) Tail Flick- Ligated [µg]
1,"CN1CC[C@]23c4c5ccc(O)c4O[C@H]2[C@@H](O)C=C[C@H]3[C@H]1C5 [Morphine, morphine, reference compound]",2.3

# Same assay, conditions: i.th; sham-operated rats
row,Compound,A50(95% C.L.) Tail Flick- Sham [µg]
1,"CN1CC[C@]23c4c5ccc(O)c4O[C@H]2[C@@H](O)C=C[C@H]3[C@H]1C5 [Morphine, morphine, reference compound]",1.45

# System: p75 and trkA receptors
# Experiment: Binding of [125I]NGF to PC12 cells in the presence and absence of BDNF
# Settings: 100 uM compound, 0.5 nM 125I-NGF
# Description: The ability of the compounds of Formula I to antagonize NGF interaction with the p75 and trkA receptors was determined as follows.
# NGF was labelled using the Lactoperoxidase labelling method (Sutter et al., J. Biol. Chem., 1979) and the labelled NGF was separated from radiolabelling agents and free iodide using a PD-10 Sephadex G-25 column.
# PC12 cells were grown in RPMI with 10% heat inactivated donor horse serum and 5% fetal calf serum. Cells were harvested for binding by washing off the media with calcium-magnesium free balanced salt solution (Gey's solution) and incubated in 5 ml Gey's solution at 37° C. for 15 minutes. Cells were pelleted by centrifugation and suspended in Hepes-Krebs Ringer buffer (HKR) (10 mM Hepes pH7.35, containing 125 mM NaCl, 4.8 mM KCl, 1.3 mM CaCl2, 1.2 mM MgSO4, 1.2 mM KH2PO4, 1 mg/ml BSA and 1.0 mg/ml glucose) at a concentration of 4×10^6/ml and kept on ice. (C) NGF Binding The reaction was performed in a 96 well plate. Suspended cells (150 ul, […]) were added to ^125I-NGF (final concentration of 0.5 nM) and the competing compound of Formual I in a final volume of 300 ul of HKR buffer. The plates were incubated with shaking for 2 hr at 4° C. At the end of the incubation, 100 ul aliquots of the reaction sample were added to 400 ul microcentrifuge tubes containing 200 ul of 10% glycerol in HKR buffer. The tubes were centrifuged for 1 minute at ˜5000 rpm and the tip containing the cell pellet was cut off. Radioactivity bound to the cells was determined by measuring the ^125I-NGF associated with each pellet in a gamma counter. Specific binding is calculated as the difference between the amount of ^125I-NGF bound in the absence (total) and presence (NSB) of 50 nM unlabeled NGF. TrkA binding is determined similarly except 10 nM BDNF is added to all reactions. Table 1 summarizes the values obtained from this experiment for the inhibition of binding of NGF to P75 and TrkA by compounds of Formula I.
row,Compound,% Inhibition at 100 uM [%]
1,"Cc1ccc(S(=O)(=O)Nc2cc(Cl)c(Cl)cc2N2C(=O)c3cccc4cccc(c34)C2=O)cc1 [2-[2-(4-Methylbenzsulphonamido)-4,5-dichlorophenyl]naphthalimide]",26
2,"3-Methyl-3-(1,3-dioxo-5-nitro(1H,3H)benz[de]isoquinolyl)butyric acid methylester",17
3,NN1C(=O)c2cccc3cccc(c23)C1=O [Naphthalicacid-N-aminoimide],27
4,O=C1c2cccc3c([N+](=O)[O-])ccc(c23)C(=O)N1CC1CCCO1 (stereo not drawn) [6-Nitro-2-(tetrahydrofuran-2-ylmethyl)naphthalimide],28
5,"O=C(O)CCN1C(=O)c2cccc3cc([N+](=O)[O-])cc(c23)C1=O [3-Nitro-1,8-(N-propioncarboxylate)succinamidonapthalene]",25
6,CCCCCCCCN1C(=O)c2cccc3cc([N+](=O)[O-])cc(c23)C1=O [N-Octyl-5-nitronaphthalimide],29
7,CCOc1ccc(N2C(=O)c3cccc4cc([N+](=O)[O-])cc(c34)C2=O)cc1 [N-(4-Ethoxyphenyl)-5-nitronaphthalimide],18
8,"Cc1cc(C)cc(N2C(=O)c3cccc4cccc(c34)C2=O)c1 [N-(3,5-Dimethylphenyl)-1,8-naphthalimide]",9
9,"O=C(O)CN1C(=O)c2cccc3cc([N+](=O)[O-])cc(c23)C1=O [N-(1,3-Dioxo-5-nitro-1,2,3,4-tetrahydrobenzo[i]isoquinoline)acetic acid]",58
10,Nc1ccccc1N1C(=O)c2cccc3cccc(c23)C1=O [2-(2-Aminophenyl)naphthalimide],20
11,"Naphthalicacid-N,N′-diimide",13
12,"O=C1c2cccc3cccc(c23)C(=O)N1CCO [N-(1,3-Dioxo-1,2,3,4-tetrahydrobenzo[i]isoquinoline)aminoethanol]",27
13,"O=C1c2cccc3cc([N+](=O)[O-])cc(c23)C(=O)N1CCCN1CCOCC1 [1,3-Dioxo-5-nitro-n-propylmorpholino-1,2,3,4-tetrahydrobenzo[i]isoquinoline]",11
14,O=C1c2cccc3cccc(c23)C(=O)N1Cc1ccccn1 [N-(Pyrid-2-ylmethyl)naphthalimide],10
15,"CCOC(=O)CN1C(=O)c2cccc3cc([N+](=O)[O-])cc(c23)C1=O [Ethyl-5-nitro-1,3-dioxo-1H-benz[de]isoquinoline-2-3H-acetate]",16
16,"Cc1ccc(S(=O)(=O)Nc2cc(C)c(C)cc2N2C(=O)CC3C=CC=C4C=CC=CC43C2=O)cc1 (stereo not drawn) [1,3-Dioxo-2-[4,5-dimethyl-2-(4-methylphenylsulphonamido)phenyl]-1,2,3,4-tetrahydrobenzo[i]isoquinoline]",19
17,"O=C1c2cccc3cccc(c23)C(=O)N1Nc1ccccc1 [N-Anilino-1,8-naphthalimide]",1
18,CN1C(=O)c2cccc3cccc(c23)C1=O [N-Methylnaphthalimide],11

row,Compound,% Inhibition at 100 uM [%]
1,"O=C1c2cccc3cc([N+](=O)[O-])cc(c23)C(=O)N1CC1CCCO1 (stereo not drawn) [1,3-Dioxo-N-methyltetrahydrofurfur-2-yl-5-nitro-1,2,3,4-tetrahydro[i]isoquinoline]",18
2,"Cc1ccc(S(=O)(=O)Nc2ccccc2N2C(=O)c3cccc4c(N(C)C)ccc(c34)C2=O)cc1 [2-{2-(4-methylphenylsulphonamido)phenyl}-6-(N,N-dimethylamino)-naphthalimide]",29
3,"O=C1c2cccc3cccc(c23)C(=O)N1CCc1ccccn1 [N-(Pyrid-2-ylethyl)-1,8-naphthalimide]",35
4,O=C1c2cccc3c([N+](=O)[O-])ccc(c23)C(=O)N1Cc1cccnc1 [6-Nitro-2-(pyrid-3-methyl)naphthalimide],23
5,O=C1c2cccc3cccc(c23)C(=O)N1c1ccccc1O [2-(2-Hydroxyphenyl)naphthalimide],13
6,"O=C1c2cccc3cc([N+](=O)[O-])cc(c23)C(=O)N1CCc1ccccn1 [1,3-Dioxo-5-nitro-N-(pyrid-2-ylethyl)-1,2,3,4-tetrahydro[i]isoquinoline]",28
7,"O=C1c2cccc3cccc(c23)C(=O)N1Cc1ccco1 [N-Furfuryl-1,8-naphthalimide]",36
8,CCCCN1C(=O)c2cccc3cc(N)cc(c23)C1=O [5-Amino-N-butylnaphthalimide],13
9,"CN(C)c1ccc2c3c(cccc13)C(=O)N(c1nc3ccccc3[nH]1)C2=O [6-(N,N-Dimethylamino)-2-(benzimidazol-2-yl)naphthalimide]",36
10,"O=C1c2cccc3c(Sc4ccccc4)ccc(c23)C(=O)N1CCO [N-(1,3-Dioxo-6-phenylmercapto-1,2,3,4-tetrahydrobenzo[i]isoquinoline)aminoethanol]",3
11,"O=C1c2cccc3cc([N+](=O)[O-])cc(c23)C(=O)N1CCO [N-(1,3-Dioxo-5-nitro-1,2,3,4-tetrahydrobenzo[i]isoquinoline)-aminoethanol]",44
12,"3-Amino-7,4-bis(ethyl-1,3-dioxo-1,2,3,4-tetrahydrobenzo[i]isoquinoline",23
13,O=C1c2cccc3c([N+](=O)[O-])ccc(c23)C(=O)N1CCc1ccccn1 [6-Nitro-2-(pyrid-2-ylethyl)naphthalimide],11
14,O=C1c2cccc3c([N+](=O)[O-])ccc(c23)C(=O)N1Cc1ccco1 [6-Nitro-2-(furfuryl)naphthalimide],17
15,"O=C1CC2C=C(Sc3ccccc3)C=C3C=CC=CC32C(=O)N1CCc1ccccn1 (stereo not drawn) [1,3-Dioxo-6-phenylmercapto-N-(pyrid-2-ylethyl)-1,2,3,4-tetrahydro-benzo[i]isoquinoline]",33
16,"O=C1c2cccc3cc(Br)cc(c23)C(=O)N1Cc1cccnc1 [5-Bromo-1,3-dioxo-N-methylpyrid-3-yl-1,2,3,4-tetrahydrobenzo[i]isoquinoline]",28
17,"O=C1CC2C=CC=C3C=CC=CC32C(=O)N1c1nc2ccccc2[nH]1 (stereo not drawn) [2-(Benzimidaz-2-yl)-1,3-dioxo-1,2,3,4-tetrahydrobenzo[i]isoquinoline]",23

# System: L5/L6 Nerve Ligated rats
# Experiment: Tactile allodynia, nerve ligation injury model (von Frey paw withdrawal threshold)
# Settings: i.p.
row,Compound,A50(95% C.L.) Allodynia- Ligated [mg/kg]
1,"CN1CC[C@]23c4c5ccc(O)c4O[C@H]2[C@@H](O)C=C[C@H]3[C@H]1C5 [Morphine, morphine, reference compound]",7.1

# Same assay, conditions: i.th
row,Compound,A50(95% C.L.) Allodynia- Ligated [µg]
1,"CN1CC[C@]23c4c5ccc(O)c4O[C@H]2[C@@H](O)C=C[C@H]3[C@H]1C5 [Morphine, morphine, reference compound]",>100
